Data: the supplement of paper PMC10307832

Assays:
Test in all cases: relative viability (nuclei count vs DMSO), 5 days (fraction); higher = more cells survive
[1] = compound: Cn1cc(-c2cnc3ccc4ccc(CS(=O)(=O)NCc5ccccn5)cc4c(=O)c3c2)cn1 [MK-8033] + N=C(N)NC(=N)NCCc1ccccc1 [Phenformin] (partner 250 µM)
Procedure, shortened: (§1)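 A single step with final 0.05% Triton X-100, 1% formaldehyde and 1 ug/ml Hoechst fixed the cells and stained nuclei 5 days after treatment. Lung cancer cell lines in 1536-well plates had been treated by pin tool the day after seeding with one drug alone or a fixed anchor-drug dose plus five library-drug doses (not always all listed) in √10 steps, and nuclei were counted on 4× images. Relative viability is the ratio of nuclei in treated wells to nuclei in vehicle wells, taken as the median of duplicate plates.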

[2] = compound: Cn1cc(-c2cnc3ccc4ccc(CS(=O)(=O)NCc5ccccn5)cc4c(=O)c3c2)cn1 [MK-8033] + CS(=O)(=O)CCNCc1ccc(-c2ccc3ncnc(Nc4ccc(OCc5cccc(F)c5)c(Cl)c4)c3c2)o1 [Lapatinib] (partner 2 µM)
Procedure, shortened: as §1

[3] = compound: CCc1c2c(nc3ccc(OC(=O)N4CCC(N5CCCCC5)CC4)cc13)-c1cc3c(c(=O)n1C2)COC(=O)[C@]3(O)CC [Irinotecan] + Cc1nc(Nc2ncc(C(=O)Nc3c(C)cccc3Cl)s2)cc(N2CCN(CCO)CC2)n1 [Dasatinib] (partner 0.075 µM)
Procedure, shortened: as §1

[4] = compound: CC[C@@H](C)CNCC(=O)N1CCC2=C([C@@H]1COC3=CC=CC(=C3)C)C=CS2 [RU-SKI 43] + Cc1nc(Nc2ncc(C(=O)Nc3c(C)cccc3Cl)s2)cc(N2CCN(CCO)CC2)n1 [Dasatinib] (partner 0.075 µM)
Procedure, shortened: as §1

Row | Cell Line | relative viability ([1]; first compound 0.02 µM) | relative viability ([1]; first compound 0.06325 µM) | relative viability ([1]; first compound 0.2 µM) | relative viability ([1]; first compound 0.6325 µM) | relative viability ([1]; first compound 2 µM) | relative viability ([2]; first compound 0.02 µM) | relative viability ([2]; first compound 0.2 µM) | relative viability ([2]; first compound 0.6325 µM) | relative viability ([2]; first compound 2 µM) | relative viability ([3]; first compound 2 µM) | relative viability ([3]; first compound 6.325 µM) | relative viability ([3]; first compound 20 µM) | relative viability ([4]; first compound 0.1 µM) | relative viability ([4]; first compound 0.3162 µM) | relative viability ([4]; first compound 1 µM) | relative viability ([4]; first compound 3.162 µM) | relative viability ([4]; first compound 10 µM) | relative viability ([2]; first compound 0.06325 µM) | relative viability ([3]; first compound 0.6325 µM)
1 | NCI-H1793 | 0.383 | 0.284 | 0.316 | 0.394 | 0.293 | 0.793 | 0.492 | 0.783 | 0.495 | 0.385 | 0.252 | 0.234 | 0.388 | 0.381 | 0.357 | 0.385 | 0.316 |  | 
2 | NCI-H2170 | 0.447 | 0.424 | 0.374 | 0.407 | 0.399 | 0.272 | 0.254 | 0.311 | 0.275 | 0.663 | 0.281 | 0.164 | 0.695 | 0.634 | 0.616 | 0.716 | 0.467 | 0.263 | 0.563
3 | LOU-NH91 | 0.716 | 0.473 | 0.717 | 0.715 | 0.768 | 0.785 | 0.735 | 0.772 | 0.745 | 0.548 | 0.31 | 0.361 | 0.553 | 0.604 | 0.624 | 0.581 | 0.554 |  | 0.525
4 | NCI-H596 | 0.854 | 0.662 | 0.741 | 0.657 | 0.627 | 1.12 | 1.05 | 1.02 | 1.17 | 0.765 | 0.703 | 0.633 | 0.635 | 0.646 | 0.62 | 0.653 | 0.587 | 0.977 | 0.576
5 | LXF-289 | 0.559 | 0.504 | 0.499 | 0.547 | 0.538 | 0.902 | 0.874 | 0.917 | 0.875 | 0.265 | 0.172 | 0.139 | 0.217 | 0.21 | 0.218 | 0.231 | 0.187 | 0.907 | 0.138
6 | NCI-H727 | 0.7 |  | 0.435 | 0.627 | 0.465 | 0.759 | 0.665 | 0.748 | 0.858 | 0.467 | 0.437 | 0.438 | 0.438 | 0.285 | 0.426 | 0.473 | 0.307 | 0.72 | 0.243
7 | NCI-H2009 | 0.524 | 0.476 | 0.456 | 0.482 | 0.463 | 0.959 | 0.929 | 1.13 | 0.973 | 0.287 | 0.182 | 0.116 | 0.314 | 0.296 | 0.324 | 0.289 | 0.276 | 0.887 | 0.284
8 | NCI-H1395 | 0.448 | 0.412 | 0.43 | 0.45 | 0.416 | 1.1 | 0.858 | 0.931 | 1.35 | 0.535 | 0.415 | 0.522 | 0.4 | 0.375 | 0.437 | 0.37 | 0.456 | 0.958 | 0.298
9 | NCI-H1993 | 0.591 | 0.469 | 0.497 | 0.537 | 0.488 | 0.765 | 0.7 | 0.802 | 0.828 | 0.601 | 0.484 | 0.603 | 0.608 | 0.516 | 0.653 | 0.778 | 0.533 | 0.677 | 0.549
10 | HCC-366 | 0.725 | 0.644 | 0.601 | 0.618 | 0.607 | 1.04 | 0.972 | 1.05 | 1.05 | 0.429 | 0.0758 | 0.0603 | 0.61 | 0.955 | 0.715 | 0.698 | 0.476 | 0.994 | 0.362
11 | NCI-H322M | 0.779 | 0.662 | 0.698 | 0.936 | 0.749 | 0.605 | 0.531 | 0.575 | 0.602 | 0.331 | 0.358 | 0.191 | 0.256 | 0.238 | 0.255 | 0.249 | 0.259 | 0.508 | 0.247
